The values that follow are results of earlier work, collected in patent publication US20220249637A1, “COMBINATION THERAPY OF A CELL-MEDIATED CYTOTOXIC THERAPY AND AN INHIBITOR OF A PROSURVIVAL BCL2 FAMILY PROTEIN” (Juno Therapeutics, Inc., priority 2019, published 2022).

The subject of one data set is CD3+ cells. As to conditions: human, in vivo; cited from earlier work.
Data set [1] concerns CD3+CD4+ and CD3+CD8+ T cells. As to conditions: mouse, in vivo; cited from earlier work.

Consider navitoclax, for which, in the data set with CD3+ cells, the “average decrease of CD3+ cells” value is on record as 241 cells/μL and the “decrease in T cells at final visits” value was “maintained”. For the same substance, the “CD3+CD4+ and CD3+CD8+ T cells in the peripheral blood” value in data set [1] is “induced a relative and absolute reduction”.
